One test has as its system Pseudomonas fluorescens. Description: Alternate Minimum Inhibitory Concentrations Test (Table 4), Ps.fl. To be noted: Table 4 alternate test, 250 ppm to 0.8 ppm in TSB, 72 hours, 30° C.; for MIC: Pseudomonas fluorescens, read-out: MIC Ps.fl. The format is cell-based. Put shortly: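 MIC taken as lowest concentration showing no growth after 72 h incubation at 30 °C in TSB. Twofold dilution series spanned 250 down to 0.8 ppm, wells inoculated with phosphate-buffer-diluted 24 h culture.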

For test [1], the system named is Pseudoperonospora cubensis. Description: whole plant or invertebrate. To be noted: for pest or weed control at 50 ppm: Pseudoperonospora cubensis, in Cucumis sativus, 168 h, read-out: % Control CDM; for % Control CDM: in vivo. The test is classed as in vivo.
A further test deals with Piricularia oryzae. Briefly: whole plant or invertebrate. The test is classed as in vivo. To be noted: for % Control RB: in vivo; for pest or weed control at 200 ppm: read-out: % Control RB, application rate 200 ppm.
The test system of test [2] is Pellicularia filamentosa (f. sp. sasiki). Description: whole plant or invertebrate. The test is classed as in vivo. To be noted: for pest or weed control at 100 ppm / pest or weed control at 200 ppm: 120 h, read-out: % Control RSB; for % Control RSB: in vivo.
The subject of another test is Phytophthora infestans. Description: whole plant or invertebrate. The test is classed as in vivo.
In test [3] the test system is Puccinia recondita (f. sp. tritici Races PKB and PLD). Briefly: whole plant or invertebrate. Conditions: for % Control WLR: in vivo. The test is classed as in vivo.
Test [4] relates to Erysiphe graminis (f. sp. tritici). Description: whole plant or invertebrate. The test is classed as in vivo. Conditions: for % Control WPM: in vivo.
Test [5] relates to Puccinia graminis (f. sp. tritici Race 15B-2). Description: whole plant or invertebrate. Conditions: for pest or weed control at 200 ppm: Puccinia graminis, 336 h, read-out: % Control WSR; for % Control WSR: application rate 200 ppm. The test is classed as in vivo.
The mark [6] stands for this setting: Phytophthora infestans, in Solanum lycopersicum, 96 h, read-out: % Control TLB.
Where [7] appears, read: Puccinia recondita, 240 h, read-out: % Control WLR.
[8] abbreviates: Blumeria graminis, read-out: % Control WPM.

Read-outs that look alike come from different tables or passages of the source.

A word on the MIC: it is the lowest concentration found to suppress growth. On to `CCCCCCCCNC(=O)/C=C\SCc1ccc(C(F)(F)F)cc1` [Compound 33, N-octyl-cis-3-[(4-(trifluoromethyl)benzyl)thio]acrylamide], for which the MIC in the test on Pseudomonas fluorescens is above 250 mg/L. In test [1], the pest or weed control at 50 ppm worked out at 50%. In the test with Piricularia oryzae (Pyricularia oryzae, read-out: % Control RB, application rate 25 ppm), the pest or weed control at 25 ppm worked out at 80%. The pest or weed control at 100 ppm stood at 0% in test [2], 80% with Phytophthora infestans (setting [6]), 0% in test [3] (setting [7]) and 85% in test [4] (setting [8]). For the same molecule, the pest or weed control at 200 ppm in test [5] came out at 75%.

`CCCCCCCCNC(=O)C=CSC(CO)COc1ccccc1` (stereo not drawn) [Compound 40, N-octyl-cis-3-[(1-hydroxy-3-phenoxy-2-propane)thio]acrylamide]: the “MIC Ps.fl” value in the test on Pseudomonas fluorescens is given as above 250 Ppm. The “% Control CDM” value in test [1] came to 85 % Control. For the same molecule, the “% Control RB” value with Piricularia oryzae was 75 % Control. Moreover, the “% Control RSB” value in test [2] is 0 % Control. For the same molecule, the “% Control TLB” value in the test on Phytophthora infestans (application rate 100 ppm) worked out at 95 % Control. Further, in test [3], the “% Control WLR” value is recorded as 0 % Control. The “% Control WPM” value in test [4] was found to be 50 % Control. For the same molecule, the “% Control WSR” value in test [5] amounted to 75 % Control.

For `CCCCCCCCNC(=O)/C=C\SC(=O)CCc1ccccc1` [Compound 69, N-octyl-cis-3-[(3-phenylpropanoyl)thio]acrylamide], the MIC in the test with Pseudomonas fluorescens was above 250 mg/L. The pest or weed control at 50 ppm in test [1] was 85%. The pest or weed control at 200 ppm in the test with Piricularia oryzae (Pyricularia oryzae) came out at 80%; in test [2], 0%; in the test with Phytophthora infestans (Phytophthora infestans, in Solanum lycopersicum, 96 h, read-out: % Control TLB, application rate 200 ppm), 100%; in test [4] (setting [8]), 0%; in test [5] it was 75%. In addition, in test [3], the “% Control WLR” value is given as 0 % Control.

`CCCCCCCCNC(=O)/C=C\SC(=O)/C=C/C(=O)OCC` [Compound 57, N-octyl-cis-3-[(trans-3-ethoxycarbonyl-2-propenoyl)thio]acrylamide]: the MIC in the test on Pseudomonas fluorescens was above 250 mg/L. In addition, the pest or weed control at 50 ppm in test [1] was 70%. Further, the pest or weed control at 200 ppm with Piricularia oryzae (Pyricularia oryzae) is 75%; in test [2] it was 0%; with Phytophthora infestans (setting [6]), 90%; in test [3] (setting [7]), 25%; in test [5] it was 90%. Further, the pest or weed control at 12 ppm in test [4] (setting [8]) was found to be 50%.

For “N-octyl-cis-3-[(2-butenoyl)thio]acrylamide [Compound 20]”, in the test with Pseudomonas fluorescens, the “MIC Ps.fl” value was above 250 Ppm. Also, in test [1], the “% Control CDM” value is 85 % Control. Also, in the test on Piricularia oryzae, the “% Control RB” value was determined as 50 % Control. The “% Control RSB” value in test [2] is on record as 0 % Control. In addition, the “% Control TLB” value in the test with Phytophthora infestans (application rate 6 ppm) stood at 95 % Control. Besides, the “% Control WLR” value in test [3] is recorded as 0 % Control. Also, in test [4], the “% Control WPM” value was found to be 0 % Control. In test [5], the “% Control WSR” value came out at 75 % Control.

For `CCCCCCCCNC(=O)/C=C\SC(=O)c1cc(Cl)sc1Cl` [Compound 18, N-octyl-cis-3-[(2,5-dichloro-3-thiophene)carbonylthio]acrylamide], the MIC with Pseudomonas fluorescens was above 250 mg/L. Further, the pest or weed control at 50 ppm in test [1] was 70%. Moreover, the pest or weed control at 100 ppm was found to be 50% in the test with Piricularia oryzae (Pyricularia oryzae, read-out: % Control RB, application rate 100 ppm); 0% in test [2]; 0% in test [3] (setting [7]); 0% in test [4] (setting [8]). Also, the pest or weed control at 25 ppm with Phytophthora infestans (Phytophthora infestans, in Solanum lycopersicum, 96 h, read-out: % Control TLB, application rate 25 ppm) was determined as 100%. Also, the pest or weed control at 200 ppm in test [5] came out at 50%.

In the case of `CCCCCCCCNC(=O)/C=C\SC(=O)c1ccco1` [Compound 15, N-octyl-cis-3-(2-furoylthio)acrylamide], the MIC in the test on Pseudomonas fluorescens was above 250 mg/L. Also, the pest or weed control at 50 ppm in test [1] stood at 50%. The pest or weed control at 100 ppm with Piricularia oryzae (Pyricularia oryzae, read-out: % Control RB) stood at 100%; in test [2] it was 0%; with Phytophthora infestans (Phytophthora infestans, in Solanum lycopersicum, 96 h, read-out: % Control TLB, application rate 100 ppm), 95%; in test [3] (setting [7]) it was 95%; in test [4] (setting [8]) it was 0%. Moreover, in test [5], the pest or weed control at 200 ppm was found to be 90%.

The values above are taken from patent US5300672A (priority 1992, dated 1994).
